{"source": "patent US6884907B2", "about": "“Hydroxamic acids and acyl hydroxamines as naaladase inhibitors” (Guilford Pharmaceuticals Inc., priority 2001, dated 2005)", "key": {"[1]": {"test_system": "STZ-induced diabetic rats", "assay": "Neuropathic pain in STZ model (thermal nociception, Hargreaves apparatus)", "assay_type": "in vivo, Male Sprague-Dawley rats", "conditions": "10 mg/kg i.p. daily, treatment started 45 days post-STZ, FIGS. 7A and 7B", "method": "Male Sprague-Dawley rats (200-225 g) were rendered diabetic by intravenous administration of streptozotocin (“STZ”, 70 mg/kg in phosphate buffered saline). Diabetic animals were divided into five groups: one group receiving Compound A (10 mg/kg or 1 mg/kg), Compound D (10 mg/kg or 1 mg/kg) or vehicle. Another group of animals (non-STZ treated) served as non-diabetic controls. Drug/vehicle treatment was started in diabetic animals 45 days post-STZ administration. STZ-induced diabetic rats were tested for sensitivity to a heat source as soon as blood glucose levels rose to 320 mg/dl or above (30 days post STZ). The rats were then acclimated to a Hargreaves apparatus and thermal nociception was monitored using an infrared heat source directed into the dorsal surface of the hindpaw, and the time taken for the animal to remove its paw noted to the nearest 0.1 seconds (see Hargreaves et al., supra, for detailed experimental method). The intensity of the beam source was adjusted such that the mean latency for control animals (non-STZ treated) was approximately 10 seconds. Each animal was tested 8 times and the mean difference score (between mean non-diabetic control latency and mean diabetic latency) are graphically presented in FIGS. 7A and 7B."}, "BB/W diabetic rats": {"test_system": "BB/W diabetic rats", "assay": "Progression of neuropathic pain and nerve conduction deficits in BB/W model", "assay_type": "in vivo, Male BB/W rats", "text": "Male BB/W rats (BRI, Mass) spontaneously develop a cell mediated autoimmune destruction of pancreatic B cells, resulting in onset of insulin-dependent (Type I) diabetes (Guberski 1994). […] This renders them valuable for experimental trials of new compounds for future treatments of this major disorder. In the present study, Compound D and Compound A were examined for their ability to alter the progression of diabetic neuropathy. The rats received daily injection of Compound D or Compound A (10 mg/kg i.p.) or vehicle, starting at the onset of diabetes (hyperglycemia) and up to 6 months thereafter. Another group of non-diabetic rats also receiving vehicle were tested. All animals were continuously monitored for body weight, urine volume, blood sugar and glycated haemoglobin. In the first month of the study, all animals were tested for thermal nociception in a Hargreaves apparatus, weekly. After the first month this was done biweekly and then monthly. The testing consists of directing an infrared heat source onto the dorsal surface of the rat hindpaw and noting the time taken for the animal to remove its paw (see Hargreaves et al., supra, for a description of the experimental method). Each animal was tested 8 times and the mean withdrawal latency noted.\nNerve conduction velocity was also measured every two weeks through the first eight weeks of treatment and every month thereafter through to the six months of treatment (see De Koning et al., Peptides, Vol. 8, No. 3, pp. 415-22 (1987) for a description of the experimental method). […] This was apparent starting at 8 weeks of treatment and persisted to a similar degree through to the six month termination point of the study."}, "STZ-diabetic animals": {"test_system": "STZ-diabetic animals", "assay": "Diabetic neuropathy in STZ model (nerve conduction velocity)", "assay_type": "in vivo, rats", "conditions": "10 mg/kg daily", "method": "Motor and sensory nerve conduction velocity was also measured in STZ-diabetic animals after 4, 8 and 12 weeks of treatment (see De Koning et al., supra, for a description of the experimental method). Briefly, stimulating needle electrodes were inserted close to the sciatic and tibial nerves with recording electrodes being placed subcutaneously over the distal foot muscles, in anesthetized rats."}, "transgenic G1H mice": {"test_system": "transgenic G1H mice", "assay": "Onset of ALS in SOD transgenic mice model of FALS", "assay_type": "in vivo", "method": "The effect of NAALADase inhibitors on the onset of ALS was tested using the superoxide dismutase (“SOD”) transgenic mice model of familial Amyotrophic Lateral Sclerosis (“FALS”), which is detailed in Gurney, M., Annals of Neurology (1996) 39:147-157, and otherwise well known in the art. One month old transgenic G1H mice were treated with daily intraperitoneal injections of a vehicle (50 mM HEPES-buffered saline) or a NAALADase inhibitor (50 mg/kg of Compound A). Clinical symptoms of the mice were monitored daily. The onset of clinical disease was scored by examining each mouse for its shaking of limbs when suspended in the air by its tail, cross spread of spinal reflexes, hindlimb paralysis, body weight and wheel running activity."}, "[2]": {"test_system": "rats with transected optic nerve", "assay": "Optic nerve transection (optic nerve fiber counting)", "assay_type": "in vivo, Brown Norway rats (Rattus norvegicus)", "conditions": "2 weeks after transection", "method": "All experiments complied with the Association for Research in Vision and Ophthalmology Statement for the Use of Animals in Ophthalmic and Vision Research. 82 male Brown Norway rats (Rattus norvegicus), each weighing approximately 250 gm, were treated using procedures approved by the Animal Care Committee of the Johns Hopkins University School of Medicine. The rats were housed with a 12 hour light/12 hour dark cycle and fed ad libitum.\nOPTIC NERVE TRANSECTION: The optic nerve was transected unilaterally in 26 rats under intraperitoneal pentobarbital anesthesia. The conjunctiva was opened with scissors and the optic nerve exposed by traction on extraocular muscles. […]\nThe area of the optic nerve cross-section was measured by outlining its outer border at 10× magnification on an image analysis system (Universal Imaging Corp., Westchester, Pa.) with Synsys digital camera and Metamorph software. Three area measurements were taken and the mean value was determined. […] These were edited to eliminate non-neural objects and the size of each axon internal to the myelin sheath (its minimum diameter) and the density of axons/square mm were calculated for each image and nerve. […] The number of axons counted among the 10 images was an approximately 20% sample of the 80-90,000 axons in normal rat nerves. […]"}, "TGF-β [3]": {"test_system": "TGF-β", "assay": "Effect of NAALADase inhibition on TGF-β in in vitro ischemia model", "assay_type": "cell-based", "conditions": "ischemic cell cultures", "method": "A NAALADase inhibitor, Compound C, was added to ischemia cell cultures to determine its effect on TGF-β levels during stroke.\nTGF-β neutralizing antibodies were then added to the ischemic cell cultures."}, "TGF-β [4]": {"test_system": "TGF-β", "assay": "Effect of NAALADase inhibition on TGF-β in in vivo ischemia model (MCAO)", "conditions": "MCAO rats", "text": "The effect of TGF-β neutralizing antibodies on the neuroprotective effect of Compound C was also studied in rats following MCAO."}, "[5]": {"test_system": "rats with sciatic nerve ligation", "assay": "Neuropathic pain in chronic constriction injury (CCI) model", "assay_type": "in vivo", "conditions": "50 mg/kg i.p. daily starting 10 days post surgery, versus vehicle, FIG. 8", "method": "Sciatic nerve ligation, consisting of 4 ligatures tied loosely around the sciatic nerve at 1 mm intervals proximal to the nerve trifurcation, was performed on rats. […] The rats were habituated to a Hargreaves apparatus. An infrared heat source was directed onto the […] surface of each rat's hindpaws and the time taken for the rat to withdraw its paws was noted. The difference in scores between the latency of the response for the paw on the operated side versus the paw on the unoperated control side was determined. The rats received either Compound C (50 mg/kg i.p. daily) or a vehicle starting 10 days post surgery. […] Normal (unoperated) rats had approximately equal latencies for both paws. This effect was significant starting at 11 days of drug treatment and persisted through to the end of the study (for 21 days of daily dosing)."}, "[6]": {"test_system": "Transgenic HD mice of the N171-82Q strain", "assay": "Transgenic mouse model of Huntington's disease: behavioral testing (rotarod, locomotion)", "assay_type": "in vivo", "method": "Transgenic HD mice of the […]-[…] strain and non-transgenic littermates were treated with NAALADase inhibitor Compound B (30 mg/kg) or a vehicle from 10 weeks of age. The mice were placed on a rotating rod (“rotarod”). The length of time at which the mouse fell off the rotarod was recorded as a measure of motor coordination. […] The treatment with Compound B had no effect on the rotarod performance of normal non-HD mice. The total distance traveled by the mice was also recorded as a measure of overall locomotion."}, "[7]": {"test_system": "transgenic HD mice (N171-82Q)", "assay": "Transgenic mouse model of Huntington's disease: survival", "assay_type": "in vivo", "method": "The effects of Compound B and vehicle on the survival of transgenic HD mice (N171-82Q) were evaluated. Thirteen mice (six male and seven female) were assigned to the Compound B treatment group, and fourteen mice (six male and eight female) were assigned to the vehicle treatment group. Treatment was continued until all the mice died."}}}
{"compound": "O=C(O)CCC(CP(=O)(O)Cc1c(F)c(F)c(F)c(F)c1F)C(=O)O", "note": "(stereo not shown) [Compound A, 2-[[(2,3,4,5,6-pentafluorobenzyl)hydroxyphosphinyl]methyl]pentanedioic acid]", "values": [{"measurement": "hyperalgesic response (withdrawal latency difference score)", "setting": "[1]", "value": "completely reversed"}, {"measurement": "nerve conduction velocity", "setting": "BB/W diabetic rats; 10 mg/kg daily, versus diabetic vehicle controls, from 8 weeks to six months, FIG. 12", "value": "significantly less severe nerve conduction deficits"}, {"measurement": "withdrawal latency", "setting": "BB/W diabetic rats; 10 mg/kg i.p. daily, versus diabetic vehicle-treated rats, from 4 weeks through six months of treatment, FIG. 11", "value": "longer withdrawal latencies"}, {"measurement": "sensory nerve conduction velocity", "setting": "STZ-diabetic animals; after 8 weeks, FIG. 9B", "value": "significant improvement"}, {"measurement": "motor nerve conduction velocity", "setting": "STZ-diabetic animals; after 12 weeks, FIG. 9A", "value": "significant improvement"}, {"measurement": "Difference in disease onset (treated versus vehicle)", "setting": "transgenic G1H mice; Study 1, 50 mg/kg daily i.p.", "value": 32}, {"measurement": "Disease Onset For Compound A Treated Mice", "setting": "transgenic G1H mice; Study 1, 50 mg/kg daily i.p., vehicle 189", "value": 221, "unit": "days"}, {"measurement": "Difference in disease onset (treated versus vehicle)", "setting": "transgenic G1H mice; Study 2, 50 mg/kg daily i.p.", "value": 25}, {"measurement": "Disease Onset For Compound A Treated Mice", "setting": "transgenic G1H mice; Study 2, 50 mg/kg daily i.p., vehicle 141", "value": 166, "unit": "days"}, {"measurement": "remaining axons relative to saline-treated rats", "setting": "[2]", "value": 3, "unit": "times"}]}
{"compound": "O=C(O)CCC(CP(=O)(O)O)C(=O)O", "note": "(stereo not shown) [Compound C, 2-(phosphonomethyl)pentanedioic acid]", "values": [{"measurement": "TGF-β1 concentration", "setting": "TGF-β [3]; FIG. 1", "value": "increased concentrations"}, {"measurement": "TGF-β2 concentration", "setting": "TGF-β [3]; FIG. 2", "value": "increased concentrations"}, {"measurement": "neuroprotective effect in presence of TGF-β neutralizing antibodies", "setting": "TGF-β [3]; FIG. 3", "value": "blocked the neuroprotective effect"}, {"measurement": "neuroprotective effect in presence of FGF antibody", "setting": "TGF-β [3]; FIG. 4", "value": "did not block the neuroprotective effect"}, {"measurement": "neuroprotective effect in presence of TGF-β neutralizing antibodies", "setting": "TGF-β [4]; FIG. 5", "value": "significantly attenuated the neuroprotective effect"}, {"measurement": "TGF-β1 levels", "setting": "TGF-β [4]; during occlusion and reperfusion, microdialysis, FIG. 6", "value": "significant rise"}, {"measurement": "difference scores between the two paws (withdrawal latency)", "setting": "[5]", "value": "dramatically normalized"}]}
{"compound": "O=C(O)CCC(CCCS)C(=O)O", "note": "(stereo not shown) [Compound B, 2-(3-sulfanylpropyl)pentanedioic acid]", "values": [{"measurement": "remaining axons relative to saline-treated rats", "setting": "[2]", "value": "twice"}, {"measurement": "rotarod performance", "setting": "[6]; normal non-HD mice, 30 mg/kg", "value": "no effect"}, {"measurement": "rotarod performance (time on rotarod)", "setting": "[6]; transgenic HD mice, 30 mg/kg from 10 weeks of age, versus vehicle, FIG. 31", "value": "stayed longer on the rotarod"}, {"measurement": "median survival time", "setting": "[7]; all treated transgenic HD mice, vehicle 158.5 days, p-value=0.07, FIG. 33", "value": 184, "unit": "days"}, {"measurement": "survival time", "setting": "[7]; female transgenic HD mice versus vehicle, p-value=0.03, FIG. 35", "value": "significantly prolonged survival time"}]}
